Reference: article PMC4038399, “Experimental validation of [sequence]^comb virtual ligand screening results for eight proteins yields novel nanomolar and micromolar binders” (Journal of Cheminformatics, 2014)
≈ marks a conversion by molar mass, not a printed value. Read-outs that look alike come from different tables or passages of the source.

How the values were obtained:
[1] = target: T1, 1000001: Carboxy-terminus phosphatase domain of protein tyrosine phosphatase (2NV5) (Mus musculus, UniProt Q64487); assay: Thermal shift (thermal melt) assay, Sypro orange; assay type: binding, M. musculus; set-up: key to Q (quality score): Q = ΔFmelt/ΔFtotal; 1 = high-quality curve, 0 = no transition; settings: for Kd: computed from the thermal shifts obtained, read-out: KD (Approx); for ΔTm: in °C (unit assumed); for Q (quality score): ratio ΔFmelt/ΔFtotal
T1 construct: The C-terminal phosphatase domain from R. norvegicus (PDB ID: 2NV5) (1000001); New York structural genomics consortium (gift)
T1 sequence (Q64487 1331-1621): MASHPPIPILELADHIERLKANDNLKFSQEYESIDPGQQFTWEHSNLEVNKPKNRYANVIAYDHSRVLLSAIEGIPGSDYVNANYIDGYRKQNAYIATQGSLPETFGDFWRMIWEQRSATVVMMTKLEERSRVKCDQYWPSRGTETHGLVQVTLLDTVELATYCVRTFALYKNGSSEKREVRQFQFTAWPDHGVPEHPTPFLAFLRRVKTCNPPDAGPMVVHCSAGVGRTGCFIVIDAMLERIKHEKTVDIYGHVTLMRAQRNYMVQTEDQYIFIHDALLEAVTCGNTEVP
Protocol: (§1) High throughput thermal shift assays were carried out following established guidelines (Additional file 1: Table S1). Protein melting curves were obtained from samples aliquoted in 96-well plates using a RealPlex quantitative PCR instrument from Eppendorf (Eppendorf, NY, USA), with Sypro orange dye from Invitrogen as the fluorescent probe. A uniform final concentration of 5 X (supplied as a 5000 X stock solution) was used in all experiments. The dye was excited at 465 nm and emission recorded at 580 nm using the instrument’s filters. A heating ramp of 1°C/min from 25°C to 74°C was used, and one data point acquired for each degree increment. For standardization, different buffers and pH were checked. Thereafter, 100 mM HEPES pH 7.3 and 150 mM NaCl were used in all unfolding experiments. The volume of each reaction was 20 μl, and appropriate dye and protein controls were included. All experiments were done with a minimum of two replicates, with the mean value considered for further analysis. Several drugs/small molecules interact with Sypro orange and lead to aberrant signal enhancements. An additional control to rule out drug-dye interaction was carried out with all the constituents kept constant except for the protein of interest. The protein/protein-drug curves were reported after subtracting the respective dye alone/drug-dye curves.
(§2) Each melting curve was assigned a quality score (Q), the ratio of the melting-associated increase in fluorescence (ΔFmelt) to the total fluorescence range (ΔFtotal). Q = 1 is a high-quality curve, while Q = 0 indicates no thermal transition. Though an arbitrary Q value cutoff was not applied to judge curve quality, the curves were manually curated with Q values reported. […] These were ignored (see Table 1).
(§3) Subsequent to standardization, (see SI Methods), the validity of the top 1% of […]^comb’s predictions on the test set of eight diverse proteins was examined. To be conservative, we focused only on those protein/ligand pairs showing single sigmoidal thermal transition curves. The fit to Boltzmann’s equation (Eq. 1) was employed to estimate the melting temperature from the observed intensity, I.
(§4) (4) I=Imin+Imax-Imin/1+e^Tm-T/a
(§5) Imin and Imax are the minimum and maximum intensities; a denotes the slope of the curve at the transition midpoint temperate, Tm. To estimate thermodynamic parameters, both van’t Hoff and Gibbs-Helmholtz analyses were done. To estimate the approximate ligand-binding affinity at Tm, Eq. (2) from reference was used with slight modifications; ΔCp is ignored.
(§6) (5) KLTm=exp-ΔH/R1/Tm-1/To/L
(§7) KL(Tm) is the ligand association constant and [L] is the free ligand concentration at Tm ([LTm] ~ [L]total, when [L]total > > the total concentration of protein. KD is the inverse of KL(Tm).
(§8) Thermal unfolding of the eight benchmark proteins was carried out in a 20 μl reaction mix with 100 mM HEPES pH 7.3, 150 mM NaCl, 5 X Sypro orange dye, 10 μM protein and 1 mM of all the predicted ligands.

[2] = target: T2, 1000006: catalytic domain of protein tyrosine phosphatase (2G59) (Homo sapiens, UniProt Q16827); assay: Thermal shift (thermal melt) assay, Sypro orange; assay type: binding, H. sapiens; settings: for Q (quality score): ratio ΔFmelt/ΔFtotal
T2 construct: the catalytic domain of PTP from H. sapiens (PDB ID: 2G59) (1000006); New York structural genomics consortium (gift)
T2 sequence (Q16827 938-1195 limits assumed): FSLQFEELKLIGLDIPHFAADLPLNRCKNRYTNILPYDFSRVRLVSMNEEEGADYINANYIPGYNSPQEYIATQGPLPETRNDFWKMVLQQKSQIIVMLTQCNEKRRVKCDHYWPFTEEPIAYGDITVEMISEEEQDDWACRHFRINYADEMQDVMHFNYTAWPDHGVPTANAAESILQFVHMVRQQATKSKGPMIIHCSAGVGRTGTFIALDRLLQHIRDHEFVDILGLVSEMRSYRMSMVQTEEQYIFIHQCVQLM
Protocol: as §1, §2, §3, §4, §5, §6, §7, §8

[3] = system: HCT-116 colon carcinoma cell line; assay: Cytotoxic assay on cancer cell line; assay type: cell-based
Protocol: Antimicrobial and anti-cancer tests were performed as in [80].

[4] = target: E. coli dihydrofolate reductase (DHFR) (Escherichia coli, UniProt P0ABQ4); assay: biochemical; assay type: binding; settings: for Q (quality score): ratio ΔFmelt/ΔFtotal of the melting curve; for ΔTm: thermal shift, in °C (unit assumed)
Chain of E. coli dihydrofolate reductase (DHFR) (P0ABQ4 whole entry): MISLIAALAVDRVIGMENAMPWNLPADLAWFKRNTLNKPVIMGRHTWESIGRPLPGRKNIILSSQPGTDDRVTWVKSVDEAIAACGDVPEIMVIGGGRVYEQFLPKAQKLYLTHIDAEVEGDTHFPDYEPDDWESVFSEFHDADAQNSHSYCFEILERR
Protocol: as §1, with “The dye was excited at 465 nm and emission recorded at 580 nm using the instrument’s filters. A heating ramp of 1°C/min from 25°C to 74°C was used, and one data point acquired for each degree increment.” left out
Each melting curve was assigned a quality score (Q), the ratio of the melting-associated increase in fluorescence (ΔFmelt) to the total fluorescence range (ΔFtotal). Q = 1 is a high-quality curve, while Q = 0 indicates no thermal transition. Though an arbitrary Q value cutoff was not applied to judge curve quality, the curves were manually curated with Q values reported.
as §3, §4, §5, §6, §7, §8

[5] = Table S6, 1000001, known binders of 1000001
[6] = Table S6, known binders of 1000001 tested on 1000006, in °C (unit assumed)
[7] = Table S4, protein 1000006, computed from the thermal shifts obtained, read-out: KD (Approx)
[8] = Table S4, protein 1000006, in °C (unit assumed)
[9] = Table S3, computed from the thermal shifts obtained, read-out: KD (Approx)
[10] = approximate, computed from the thermal shift, read-out: KD
[11] = inhibitory concentration for 50% growth inhibition

Row | Structure (SMILES) | Kd ([1]; Table S4, protein 1000001) [µM] | ΔTm ([1]; Table S4, protein 1000001) | Q (quality score) ([1]; Table S4, protein 1000001) | ΔTm [1, 5] | ΔTm [2, 6] | Kd [2, 7] [µM] | ΔTm [2, 8] | Q (quality score) ([2]; Table S4, protein 1000006) | further results
1 | O=S(=O)(O)c1ccc(N=Nc2ccccc2)cc1 [NSC 1847] | ~43.8 | 4.1 | 0.5 | 4.23 | 0 | – | – | – | –
2 | Nc1cc(-c2ccccc2)ccc1O [NSC 7950] | – | – | – | – | – | ~271 | 1.22 | 0.3 | –
3 | COc1cc(C(=O)C(=O)c2ccc(O)c(OC)c2)ccc1O [NSC 16722] | – | – | – | – | – | ~107 | 3.09 | 0.4 | –
4 | CCOc1ccc(Nc2c3ccccc3nc3ccccc23)cc1 [NSC 30205] | ~6.85 | 7.3 | 0.01 | 9.91 | – | – | – | – | ΔTm ([2]; Table S6, known binders of 1000001 tested on 1000006): Ambiguous; HCT-116 (IC-50) ([3]; inhibitory concentration for 50% growth inhibition, listed as 30205): 0.146 µg/mL; HCT-116 (IC-50) ([3]; inhibitory concentration for 50% growth inhibition, listed as NSC30205): 0.15 µg/mL
5 | Cc1ccc(N=Nc2ccc(N)cc2C)c(S(N)(=O)=O)c1 [NSC 45527] | ~0.567 | 11.7 | 0.04 | 11.79 | 5.48 | – | – | – | –
6 | O=C(Nc1ccc(Oc2ccc(NC(=O)Nc3ccc([N+](=O)[O-])cc3)cc2)cc1)Nc1ccc([N+](=O)[O-])cc1 [NSC 80735] | – | – | – | – | – | – | – | – | Kd [4, 9]: ~1.71 µM; Q (quality score) ([4]; Table S3): 0.3; ΔTm ([4]; Table S3): 18.16; Kd [4, 10]: 1.7 µM; HCT-116 (IC-50) ([3]; Table S3): 10.9; IC50 against HCT-116 ([3]; as worded): 10.9 µg/mL (≈ 20.6 µM)
7 | Nc1cc([N+](=O)[O-])ccc1Nc1ccc(O)cc1 [NSC 92794] | – | – | – | – | – | ~162 | 2.26 | 0.004 | Kd [2, 10]: 162 µM; HCT-116 (IC-50) ([3]; inhibitory concentration for 50% growth inhibition, listed as 92794): 9.78 µg/mL; HCT-116 (IC-50) ([3]; inhibitory concentration for 50% growth inhibition, listed as NSC92794): 9.8 µg/mL
8 | O=C(O)c1cc(O)ccc1N=Nc1ccccc1 [NSC 106863] | ~6.47 | 7.4 | 1.1 | 7.34 | 0 | – | – | – | HCT-116 (IC-50) [3, 11]: 14.5 µg/mL
9 | CC(=O)c1cc(O)c2ccccc2c1O [NSC 111552] | ~0.709 | 11.3 | 0.007 | – | 29.52 | – | – | – | HCT-116 (IC-50) [3, 11]: 2.2 µg/mL
10 | C1=Cc2ccccc2Nc2ccccc21 [NSC 123458] | – | – | – | – | – | – | – | – | Kd [4, 9]: ~5.64 µM; Q (quality score) ([4]; Table S3): 0.6; ΔTm ([4]; Table S3): 14.17
